# Article PMC5478473 (Nature chemical biology, 2017)
# Molecular target: T1, Tet(50) (unidentified prokaryotic organism, UniProt A0A059WYP6)
# T1 sequence (A0A059WYP6 1-388): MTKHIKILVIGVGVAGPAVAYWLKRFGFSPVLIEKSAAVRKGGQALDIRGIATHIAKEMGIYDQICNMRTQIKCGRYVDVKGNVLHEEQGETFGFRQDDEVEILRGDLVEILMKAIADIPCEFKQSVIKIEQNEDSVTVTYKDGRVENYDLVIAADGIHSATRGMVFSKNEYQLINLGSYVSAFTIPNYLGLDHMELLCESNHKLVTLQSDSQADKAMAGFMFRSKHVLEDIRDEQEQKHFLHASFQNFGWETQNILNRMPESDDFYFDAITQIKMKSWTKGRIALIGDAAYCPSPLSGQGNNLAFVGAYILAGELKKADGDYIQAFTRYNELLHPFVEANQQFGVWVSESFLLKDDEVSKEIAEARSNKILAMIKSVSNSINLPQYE
smiles,measurement,value
CN(C)[C@@H]1C(O)=C(C(N)=O)C(=O)[C@@]2(O)C(O)=C3C(=O)c4c(O)ccc(Cl)c4[C@@](C)(O)[C@H]3C[C@@H]12 [chlortetracycline],Km,6.3 µM
